This is an account of results in ChEMBL document CHEMBL5532696, “Discovery of new tricyclic spiroindole derivatives as potent P-glycoprotein inhibitors for reversing multidrug resistance enabled by a synthetic methodology-based library” (RSC Med Chem, 2024).

Test [1] deals with Eca-109/VCR. Nature of the test: Antiproliferative activity against human Eca-109/VCR cells assessed as cell viability at 5 uM incubated for 48 hrs by CCK-8 assay (reference value: 100 +/- 1.8%). In kind it is functional. The following applies: read-out: Activity. For orientation: Tetrazolium assays rely on reduction of a dye to a coloured formazan, in cell work by metabolically active cells.

In test [2] the test system is Eca-109/VCR. Kind of test: Reversal of vincristine resistance in human Eca-109/VCR cells assessed as reversal fold by measuring ratio of vincristine IC50 to vincristine IC50 in presence of test compound at 5 uM incubated for 48 hrs by CCK8 assay. In kind it is functional.
The subject of test [3] is Eca-109/VCR. Nature of the test: Antiproliferative activity against human Eca-109/VCR cells assessed as reduction in cell viability at 10 uM incubated for 48 hrs by CCK-8 assay. It counts as functional, cell-based.
Test [4] has as its system Eca-109/VCR. Nature of the test: Inhibition of colony formation in human Eca-109/VCR cells at 0 to 2 uM incubated for 48 hrs by crystal violet staining based assay. The following applies: dose 0-2 µM. In kind it is functional, cell-based.
The subject of test [5] is Eca-109/VCR. Nature of the test: Inhibition of colony formation in human Eca-109/VCR cells assessed as reduction in number of colonies incubated for 48 hrs in presence of vincristine by crystal violet staining based assay. Particulars: dose 0-2 µM. In kind it is functional, cell-based.
The test system of test [6] is Eca-109/VCR. Kind of test: Induction of apoptosis in human Eca-109/VCR cells assessed as viable cells at 1 uM incubated for 48 hrs by Annexin V-FITC/DAPI staining based flow cytometry analysis (reference value: 94.6 %). In kind it is functional. Particulars: read-out: Activity.
Test [7] relates to Eca-109/VCR. Nature of the test: Induction of apoptosis in human Eca-109/VCR cells assessed as early apoptotic cells at 1 uM incubated for 48 hrs by Annexin V-FITC/DAPI staining based flow cytometry analysis (reference value: 0.97 %). In kind it is functional. A general note: In flow cytometry, cells or beads pass a laser one at a time.
Test [8] has as its system Eca-109/VCR. Kind of test: Induction of apoptosis in human Eca-109/VCR cells assessed as late apoptotic cells at 1 uM incubated for 48 hrs by Annexin V-FITC/DAPI staining based flow cytometry analysis (reference value: 4.31 %). In kind it is functional.
The test system of test [9] is Eca-109/VCR. Nature of the test: Induction of apoptosis in human Eca-109/VCR cells assessed as necrotic cells at 1 uM incubated for 48 hrs by Annexin V-FITC/DAPI staining based flow cytometry analysis (reference value: 0.073 %). In kind it is functional.
The subject of test [10] is Eca-109/VCR. Kind of test: Induction of apoptosis in human Eca-109/VCR cells assessed as viable cells at 5 uM incubated for 48 hrs by Annexin V-FITC/DAPI staining based flow cytometry analysis (reference value: 94.6 %). The following applies: read-out: Activity. It counts as functional.
The subject of test [11] is Eca-109/VCR. Kind of test: Induction of apoptosis in human Eca-109/VCR cells assessed as early apoptotic cells at 5 uM incubated for 48 hrs by Annexin V-FITC/DAPI staining based flow cytometry analysis (reference value: 0.97 %). It counts as functional.
The subject of test [12] is Eca-109/VCR. Kind of test: Induction of apoptosis in human Eca-109/VCR cells assessed as late apoptotic cells at 5 uM incubated for 48 hrs by Annexin V-FITC/DAPI staining based flow cytometry analysis (reference value: 4.31 %). It counts as functional.
Test [13] relates to Eca-109/VCR. Nature of the test: Induction of apoptosis in human Eca-109/VCR cells assessed as necrotic cells at 5 uM incubated for 48 hrs by Annexin V-FITC/DAPI staining based flow cytometry analysis (reference value: 0.073 %). In kind it is functional.
The subject of test [14] is Eca-109/VCR. Kind of test: Induction of apoptosis in human Eca-109/VCR cells assessed as viable cells at 1 uM incubated for 48 hrs in presence of vincristine at 50 nM by Annexin V-FITC/DAPI staining based flow cytometry analysis (reference value: 93.5 %). In kind it is functional. Particulars: read-out: Activity.
The subject of test [15] is Eca-109/VCR. Nature of the test: Induction of apoptosis in human Eca-109/VCR cells assessed as early apoptotic cells at 1 uM incubated for 48 hrs in presence of vincristine at 50 nM by Annexin V-FITC/DAPI staining based flow cytometry analysis (reference value: 1.33 %). In kind it is functional.
The subject of test [16] is Eca-109/VCR. Kind of test: Induction of apoptosis in human Eca-109/VCR cells assessed as late apoptotic cells at 1 uM incubated for 48 hrs in presence of vincristine at 50 nM by Annexin V-FITC/DAPI staining based flow cytometry analysis (reference value: 5.06 %). In kind it is functional.
The subject of test [17] is Eca-109/VCR. Nature of the test: Induction of apoptosis in human Eca-109/VCR cells assessed as necrotic cells at 1 uM incubated for 48 hrs in presence of vincristine at 50 nM by Annexin V-FITC/DAPI staining based flow cytometry analysis (reference value: 0.062 %). In kind it is functional.
Test [18] relates to Eca-109/VCR. Kind of test: Induction of apoptosis in human Eca-109/VCR cells assessed as viable cells at 5 uM incubated for 48 hrs in presence of vincristine at 50 nM by Annexin V-FITC/DAPI staining based flow cytometry analysis (reference value: 93.5 %). It counts as functional. Particulars: read-out: Activity.
The subject of test [19] is Eca-109/VCR. Nature of the test: Induction of apoptosis in human Eca-109/VCR cells assessed as early apoptotic cells at 5 uM incubated for 48 hrs in presence of vincristine at 50 nM by Annexin V-FITC/DAPI staining based flow cytometry analysis (reference value: 1.33 %). In kind it is functional.
Test [20] relates to Eca-109/VCR. Kind of test: Induction of apoptosis in human Eca-109/VCR cells assessed as late apoptotic cells at 5 uM incubated for 48 hrs in presence of vincristine at 50 nM by Annexin V-FITC/DAPI staining based flow cytometry analysis (reference value: 5.06 %). It counts as functional.
The subject of test [21] is Eca-109/VCR. Nature of the test: Induction of apoptosis in human Eca-109/VCR cells assessed as necrotic cells at 5 uM incubated for 48 hrs in presence of vincristine at 50 nM by Annexin V-FITC/DAPI staining based flow cytometry analysis (reference value: 0.062 %). In kind it is functional.
For test [22], the system named is Eca-109/VCR. Nature of the test: Effect on ABCG2 protein expression in human Eca-109/VCR cells at 5 to 10 uM incubated for 24 hrs by Western blotting analysis. Particulars: dose 5-10 µM. It counts as functional, cell-based. In general terms: A western blot detects proteins with antibodies after separation by electrophoresis.
For test [23], the system named is Eca-109/VCR. Kind of test: Reversal of vincristine resistance in human Eca-109/VCR cells assessed as effect on P-gp protein expression at 5 to 10 uM incubated for 24 hrs by Western blotting analysis. In kind it is functional, cell-based. Particulars: dose 5-10 µM.
Test [24] concerns Eca-109/VCR. Nature of the test: Effect on MRP1 protein expression in human Eca-109/VCR cells at 5 to 10 uM incubated for 24 hrs by Western blotting analysis. In kind it is functional, cell-based. The following applies: dose 5-10 µM.
Test [25] is described as follows: Reversal of vincristine resistant in human Eca-109/VCR cells assessed as reversal fold by measuring ratio of mitoxantrone IC50 to mitoxantrone IC50 in presence of test compound at 5 uM incubated for 48 hrs by CCK8 assay. In kind it is functional.
Test [26] in a line: Reversal of vincristine resistant in human Eca-109/VCR cells assessed as reversal fold by measuring ratio of colchicine IC50 to colchicine IC50 in presence of test compound at 5 uM incubated for 48 hrs by CCK8 assay. It counts as functional.
The nature of test [27]: Reversal of vincristine resistant in human Eca-109/VCR cells assessed as reversal fold by measuring ratio of docetaxel IC50 to docetaxel IC50 in presence of test compound at 5 uM incubated for 48 hrs by CCK8 assay. In kind it is functional.
Test [28] in a line: Reversal of vincristine resistant in human Eca-109/VCR cells assessed as reversal fold by measuring ratio of doxorubicin IC50 to doxorubicin IC50 in presence of test compound at 5 uM incubated for 48 hrs by CCK8 assay. In kind it is functional.
The nature of test [29]: Reversal of vincristine resistant in human Eca-109/VCR cells assessed as reversal fold by measuring ratio of lapatinib IC50 to lapatinib IC50 in presence of test compound at 5 uM incubated for 48 hrs by CCK8 assay. In kind it is functional.
In test [30] the test system is Eca-109/VCR. Kind of test: Inhibition of colony formation in human Eca-109/VCR cells at 0 to 12 nM incubated for 48 hrs by crystal violet staining based assay. In kind it is functional, cell-based. The following applies: dose 0-12 nM.

Active and inactive are the calls of the source. No cut-off for these calls is given here.

As to `CN1C(=O)[C@@]2(c3cc(Cl)ccc31)[C@H](C(=O)NC(C)(C)C)[C@H]1c3ccc([N+](=O)[O-])cc3C(=O)[C@H]1[C@@H]2c1ccccc1`, the viability at 5 µM was determined as 98.9% with Eca-109/VCR [1], 94.6% in the test with Eca-109/VCR [10] and 77.5% with Eca-109/VCR [18]. The “Ratio IC50” value in the test with Eca-109/VCR [2] was found to be 727.2; in [25], 12; in test [26], 139.7; in test [27], 313.8; in [28], 121; in [29] it was 1.4. Besides, the result in the test with Eca-109/VCR [3], in the test on Eca-109/VCR [22], in the test with Eca-109/VCR [23] and in the test on Eca-109/VCR [24] was inactive. For the same compound, the inhibition entry in the test with Eca-109/VCR [4] is “inactive”. In addition, the inhibition entry in the test with Eca-109/VCR [5] is “Dose-Dependent Effect”. In addition, the values for the viability at 1 µM in the test with Eca-109/VCR [6] and with Eca-109/VCR [14] were 93.9% and 91.3%, respectively. Moreover, the Activity with Eca-109/VCR [7] is 1.27%; in the test with Eca-109/VCR [8], 4.73%; in the test on Eca-109/VCR [9] it was 0.082%; with Eca-109/VCR [11], 1.19%; with Eca-109/VCR [12], 4.19%; in the test with Eca-109/VCR [13] it was 0.064%. For the same compound, the Activity in the test on Eca-109/VCR [15] is recorded as 0.99%; in the test with Eca-109/VCR [16], 7.54%; in the test with Eca-109/VCR [17], 0.15%; in the test on Eca-109/VCR [19], 17.9%; with Eca-109/VCR [20] it was 4.28%; in the test with Eca-109/VCR [21], 0.31%.
With `CN1C(=O)[C@@]2(c3cc(Cl)ccc31)[C@H](c1ccccc1)[C@H]1C(=O)c3cc([N+](=O)[O-])ccc3[C@H]1[C@@H]2C(=O)NC(C)(C)C`, the viability at 5 µM in the test on Eca-109/VCR [1] was 96.7%. For the same compound, the “Ratio IC50” value in the test with Eca-109/VCR [2] is given as 471.3. In addition, the outcome with Eca-109/VCR [3] was inactive.
Take `CC[C@]1(O)C[C@H]2CN(CCc3c([nH]c4ccccc34)[C@@](C(=O)OC)(c3cc4c(cc3OC)N(C=O)[C@H]3[C@@](O)(C(=O)OC)[C@H](OC(C)=O)[C@]5(CC)C=CCN6CC[C@]43[C@@H]65)C2)C1`: the inhibition result with Eca-109/VCR [30] was “inactive”.
